Measurements: US20010020100A1, “N-substituted-1, 2, 4-triazolone compounds for treatment of cardiovascular disorders” (G.D. Searle & Co., priority 1994, published 2001)
pIC50: −log10 of the molar value. “And” between values parts separate entries of the source, which are not always exact repeats. Equal entries are not always repeated.

Tests used:
[1] = system: AII pressor response; assay: Assay C: In Vivo Intraduodenal Pressor Assay Response for AII Antagonists; parameters: species or system Sprague-Dawley rats; details: 30 mg/kg i.d., average of two rats; for Assay C Inhibition: inhibition of AII pressor response, anesthetized ganglion-blocked rats; for Assay C Duration: time from peak percent inhibition to 50% of peak
Experimental: Assay C: In Vivo Intraduodenal Pressor Assay Response for AII Antagonists
Male Sprague-Dawley rats weighing 225-300 grams were anesthetized with Inactin (100 mg/kg, i.p.) and catheters were implanted into the trachea, femoral artery, femoral vein and duodenum. Arterial pressure was recorded from the femoral artery catheter on a Gould chart recorder (Gould, Cleveland, OH). The femoral vein catheter was used for injections of angiotensin II, mecamylamine and atropine. The tracheal catheter allows for airway patency, and the duodenal catheter was used for intraduodenal (i.d.) administration of test compounds. After surgery, the rats were allowed to equilibrate for 30 minutes. Mecamylamine (3 mg/kg, 0.3 ml/kg) and atropine (400 ug/kg, 0.3 ml/kg) were then given i.v. to produce ganglion blockade. These compounds were administered every 90 minutes throughout the test procedure. Angiotensin II was given in bolus does i.v. (30 ng/kg in saline with 0.5% bovine serum albumin, 0.1 ml/kg) every 10 minutes three times or until the increase in arterial pressure produced was within 3 mmHg for two consecutive AII injections. The last two AII injections were averaged and were taken as the control AII pressor response. Ten minutes after the final control AII injection, the test compound (dissolved in sodium bicarbonate) was administered i.d. at a dose of 30 mg/kg in a volume of 0.2 ml. Angiotensin II injections were then given 5, 10, 20, 30, 45, 60, 75, 90, and 120 minutes after administration of the test compound and response of arterial pressure was monitored. The response to AII was calculated as percent of the control response and then the percent inhibition is calculated as 100 minus the percent control response. Duration of action of a test compound was defined as the time from peak percent inhibition to 50% of peak. One compound at one dose was tested in each rat. Each test compound was tested in two rats and the values for the two rats were averaged.

[2] = target: smooth muscle angiotensin II receptor; assay: Assay A: Angiotensin II Binding Activity (125I-AII displacement, rat uterine membrane preparation); details: 50% displacement of specifically bound 125I-AII, rat uterine membranes, 25° C., 60 min
Experimental: Compounds of the invention were tested for ability to bind to the smooth muscle angiotensin II receptor using a rat uterine membrane preparation. […] Rat uterine membranes were prepared from fresh tissue. All procedures were carried out at 4° C. Uteri were stripped of fat and homogenized in phosphate-buffered saline at pH 7.4 containing 5 mM EDTA. The homogenate was centrifuged at 1500×g for 20 min., and the supernatant was recentrifuged at 100,000×g for 60 min. The pellet was resuspended in buffer consisting of 2 mM EDTA and 50 mM Tris-HCl (pH 7.5) to a final protein concentration of 4 mg/ml. […] The reaction was initiated by the addition of membrane protein and the mixture was incubated at 25° C. for 60 min. The incubation was terminated with ice-cold 50 mM Tris-HCl (pH 7.5) and the mixture was filtered to separate membrane-bound labelled peptide from the free ligand. The incubation tube and filter were washed with ice-cold buffer. Filters were assayed for radioactivity in a Micromedic gamma counter. Nonspecific binding was defined as binding in the presence of 10 μM of unlabelled AII. Specific binding was calculated as total binding minus nonspecific binding. […] Binding data were analyzed by a nonlinear least-squares curve fitting program.

[3] = system: rabbit aortic rings; assay: Assay B: In Vitro Vascular Smooth Muscle Response for AII (antagonist activity in aortic rings); format: cell-based; details: antagonist at 10^-5 M, AII concentration-response curves, Schild calculation; aorta rings from two rabbits, two values per cell
Experimental: Assay B: In Vitro Vascular Smooth Muscle-Resionse for AII
The compounds of the invention were tested for antagonist activity in rabbit aortic rings. Male New Zealand white rabbits (2-2.5 kg) were sacrificed using an overdose of pentobarbital and exsanguinated via the carotid arteries. The thoracic aorta was removed, cleaned of adherent fat and connective tissue and then cut into 3-mm ring segments. The endothelium was removed from the rings by gently sliding a rolled-up piece of filter paper into the vessel lumen. The rings were then mounted in a water-jacketed tissue bath, maintained at 37° C., between moveable and fixed ends of a stainless steel wire with the moveable end attached to an FT03 Grass transducer coupled to a Model 7D Grass Polygraph for recording isometric force responses. The bath was filled with 20 ml of oxygenated (95% oxygen/5% carbon dioxide) Krebs solution of the following composition (nM) : 130 NaCl, 15 NaHCO3, 15 KCl, 1.2 NaH2PO4, 1.2 MgSO4, 2.5 CaCl2, and 11.4 glucose. […] Angiotensin II concentration-response curves were then recorded (3×10^−10 to 1×10^−5 M). […] The effectiveness of the test compound was expressed in terms of pA2 values and were calculated according to H. O. Schild [Br. J. Pharmacol. Chemother., 2,189-206 (1947)]. […] Each test antagonist was evaluated in aorta rings from two rabbits.

Row | Compound | Assay C Inhibition [1] | Assay C Duration [1] | pIC50 [2] | Assay B PA2 [3]
1 | CCCCc1nn(CCCC)c(=O)n1Cc1ccc(-c2ccccc2C(=O)O)cc1 [Example 1, 4′-[(1,3-dibutyl-4,5-dihydro-5-oxo-1H-1,2,4-triazol-4-yl)methyl] [1,1′-biphenyl]-2-carboxylic acid] | 93% | 60 to 100 min | 7.00 | 7.3 and 6.7
2 | CCCCc1nn(CCCC)c(=O)n1Cc1ccc(-c2ccccc2-c2nnn[nH]2)cc1 [Example 2, 2,5-dibutyl-2,4-dihydro-4-[[2-(1H-tetrazol-5-yl)[1,1′-biphenyl]-4′-yl]methyl]-3H-1,2.4-triazol-3-one] | 100% | >200 min | 8.31 | 9.0 and 9.4
